Laboratory results published in a melting point compilation (Tetko et al.; mined from patent text by program, amines drawn as free bases though some values may be those of a salt).

SMILES	melting point [°C]
c1ccc(Cn2ccnc2COc2nn3c(-c4ccon4)nnc3c3ccccc23)cc1	198
CCCN(CCC)CC(=O)OC1CC2(C)C(C#N)CCC2C2CCC3CC(O)CCC3(C)C12 (stereo unspecified)	114 to 116
CCOC(=O)c1[nH]cnc1CC	170 to 172
OCCN1CCOC(c2ccccc2)(c2ccccc2)CC1	122 to 123
CCOC(=O)c1cc(CC)sc1Nc1ccc(C(F)(F)F)cc1[N+](=O)[O-]	102
CCCCN(CCCC)c1ccc(C=CC2=C(C#N)C(=C(C#N)C#N)OC2(C)C)c(OC)c1	222 to 226
CC(=O)Nc1cc(C(=O)CCCCCl)cc2c1OCC2	150 to 152
Clc1ccc(-c2cc(-c3cccs3)[nH]n2)cc1	217
ON=C1CCN(CC2CCCO2)CC1 (stereo unspecified)	104 to 106
N#Cc1ccc([C@H]2CC[C@H](C=C(F)F)CC2)cc1	59.3
CC1Nc2cc(F)ccc2-n2cccc21 (stereo unspecified)	76 to 78
O=C(CCCCCCCNC(=O)OCc1ccccc1)Nc1cccc(C(=O)O)c1	167 to 168
COc1cccc2c1C=C(C#N)CC2	66 to 68
Cc1noc(NS(=O)(=O)c2ccc(NCCc3ccccc3)cc2-c2ccc(CC(C)C)cc2)c1C	68 to 71
CO[C@H]1O[C@@H](C)[C@@H]2[C@H](/C=C/[C@H]3CCC[C@H](C)N3C(=O)OC(C)(C)C)[C@H]3CCCC[C@@H]3C[C@H]12	90.5 to 92.5
COc1ccc2c(c1)CCC(CC(=O)N1CCCCC1)C2 (stereo unspecified)	59 to 61
O=C(CS(=O)Cc1ccc2c(c1)OCO2)NO (stereo unspecified)	206
COc1cc2nc(N3CCN(C(=O)C=Cc4ccc(C(C)C)cc4)CC3)nc(N)c2cc1OC	237 to 238
CN1CC(CNC(=O)C(F)(F)F)c2c[nH]c3cccc(c23)C1=O (stereo unspecified)	174 to 177
CCCCCCCCCCCCC(C)N(c1ccccc1)P(=O)(O)O (stereo unspecified)	60 to 64

SMILES	melting point [°C]
CC(C)(C)NS(=O)(=O)c1cccc(NC(=O)c2cnn3c(C(F)F)cc(-c4ccc(C(F)(F)F)cc4)nc23)c1	228
COc1ccc(OCCCCCC(=O)O)c(C=O)c1	104 to 106
O=C(CCCCCCC(=O)c1ccc(F)cc1)c1ccc(F)cc1	123 to 124
CC(C)NC(=O)OCC1CSC2=C(O1)c1ccccc1C(=O)C2=O (stereo unspecified)	218 to 220
NC(N)=Nc1nc(-c2ccc(CNC(=O)CS(=O)Cc3ccco3)o2)cs1 (stereo unspecified)	208 to 209
COc1cc(OC)nc(OC(C(=O)O)C(C)(C)C#N)n1 (stereo unspecified)	142 to 150
Cc1nc(-c2ccccc2)nc(-c2cccc([N+](=O)[O-])c2)c1C(=O)O	208 to 209
CCN(CC)CCNC(=O)c1cc(Cl)nc2ccc(I)cc12	106 to 108
CCn1c(=O)c2c(nc(C=Cc3cc(OC)ccc3S(N)(=O)=O)n2C)n(CC)c1=O	236 to 237
O=C(O)CP(=O)(O)CCNC(=O)c1ccccc1	54 to 57
Cc1ccc(-c2ccc(C)c(C(N)=O)c2N)cc1	250
Cc1nc2ccccc2n1C1CCNCC1	130 to 132
CC(=O)C(C)Sc1cc(C(C)(C)C)c(O)c(C(C)(C)C)c1 (stereo unspecified)	94 to 97
O=C(O)c1ccc(OCC2COC(=O)N2c2ccc(Cl)cc2)cc1 (stereo unspecified)	219 to 221
O=C1NC(=O)C(=Cc2csc(NC(c3ccccc3)(c3ccccc3)c3ccccc3)n2)S1	225 to 228
CN1CCN(c2cc3nc(C(C)(C)C)sc3cc2N=C=S)CC1	124 to 126
CCOC(=O)C1=C(COCCNc2nccs2)NC(C)=C(C(=O)OC)C1c1ccccc1Cl (stereo unspecified)	134
CC(=O)Oc1cn(C(C)=O)c2ccccc12	79.6 to 80.5
CN1CCN(CC(O)COc2cccc3ccccc23)CC1 (stereo unspecified)	73 to 74
O=C(CNC(=O)n1ccnc1)N(c1ccccc1)c1ccccc1	162

SMILES	melting point [°C]
N=C(N)NCCCC(NC(=O)C(CS)Cc1ccccc1)C(=O)O (stereo unspecified)	135
Cc1ccccc1N1CCN(Cc2ccc(Nc3ccnc4cc(C(F)(F)F)ccc34)cc2)CC1	208 to 210
COC(=O)C1(NC(=O)Cc2cc(Br)c(F)cc2C)CCN(OC)CC1	192 to 193
NS(=O)(=O)c1ccc(-c2[nH]c3ccc(Cl)cc3c2-c2ccccc2)cc1	297 to 299
O=C(Cc1ccccn1)c1ccc2ncccc2c1	104
O=C(C=P(c1ccccc1)(c1ccccc1)c1ccccc1)N1CCCCC1	180 to 188
Cc1nc2cccc3n(CCCCCNS(=O)(=O)C(F)(F)F)c(=O)c1n23	149 to 150
Nc1ccc(CCNCCCCCCNCCc2ccc(O)c(O)c2)cc1	> 250
OCCc1c(Br)cc(Br)c2cccnc12	128 to 131
CCOC(=O)C(NC(=O)NN1CC(=O)NC1=O)c1ccccc1 (stereo unspecified)	148 to 151
C/C(=C\c1ccc(C(=O)O)cc1)c1ccc2c(c1)C(C)(C)CCS2(=O)=O	245 to 247
CCOC(=O)Cn1c2c([nH]c(=O)c1=O)CCC1=C2C=C(n2ccc(C(=O)NCc3ccc([N+](=O)[O-])cc3)c2)CC1	165
CNC(=O)c1cccnc1CC(=O)c1ccc(Cl)cc1	162 to 163
CN(C(CCn1c(=O)cc(Cl)[nH]c1=O)C(=O)NO)S(=O)(=O)c1ccc(Oc2cccc(F)c2)cc1 (stereo unspecified)	147 to 148
CCOC(=O)Nc1ccc(-n2ccc(C#N)c2)c(F)c1	188 to 190
CCn1c(=O)oc2cc(N3C[C@H](C(=O)NC)OC3=O)ccc21	263 to 265
CCSc1cc(C#N)c(Oc2ccc(Cl)c(Cl)c2)cn1	79 to 81
O=[N+]([O-])c1ccc2c(c1)[nH]c1cc([N+](=O)[O-])ccc12	> 300
O=C(NCCSCc1cccc([N+](=O)[O-])c1)c1c(Cl)cccc1Cl	76 to 78
CCOC(=O)c1cn(CC)c2cc(OS(=O)(=O)C(F)(F)F)c(F)cc2c1=O	83 to 85

Other lines, results leading:

melting point [°C]	SMILES
201 to 202	O=c1c2cc(F)c(F)cc2n(-c2ccc(F)cc2)c(=O)n1OCc1ccccc1
248 to 250	C=CCc1c(O)c2cccnc2n(-c2ccccc2)c1=O
70 to 72	COC(=O)c1ccc(S(C)(=O)=O)c(C(=O)NCC(C)CO)c1Cl (stereo unspecified)
175	Cc1c(Nc2c(C#N)cnc3sc(CCC(=O)N4CCCC4)cc23)ccc2[nH]ccc12
158 to 164	CCCN(CCCc1c[nH]c2c(OC)cccc12)C1COc2c(F)ccc(C(N)=O)c2C1 (stereo unspecified)
221 to 222	Cc1ccc(-c2ccc(-c3ccc(C)cc3)n2-c2ccc(O)cc2)cc1
138 to 139	COc1ccc(-c2cc(=O)n(Cc3cc(OC)c(OC)c(OC)c3)nc2-c2ccc(OC)cc2)cc1
102	C#Cc1ccc(NC(=O)OC(C)(C)C)c([N+](=O)[O-])c1
111 to 113	COc1cccc([C@H]2O[C@H](CC(=O)NCCCC(=O)O)C(=O)N(CC(C)(C)CO)c3ccc(Cl)cc32)c1OC
143 to 150	Cc1cc(O)c(I)cc1C(=O)O
266 to 268	CN1C(=O)C2(COc3cc4c(cc32)OCCO4)c2c(NC(=O)C3CC3)cccc21 (stereo unspecified)
160 to 163	C1=Cc2cc3ccccc3cc2C1
210 to 212	O=C1OCCN1CCCN1C(=O)N2C[C@@H](Cc3ccccc3)N=C2c2[nH]c(C3CCCC3)nc21
> 250	O=C1Cc2cnccc2N1
111 to 116	Cn1nc(-c2ncc(Cl)cc2F)c(C=O)c1OC(F)F
185 to 187	Cc1ccc(Cl)c(Nc2ccccc2CON=CC(=O)O)c1Cl
228 to 230	CCCCc1nc(Cl)c(Cc2nnn[nH]2)n1Cc1ccc(C(=O)c2ccccc2C(=O)O)cc1
274 to 276	Nc1n[nH]c2cc(CN3CCN(S(=O)(=O)c4cc5ccc(Cl)cc5s4)CC3=O)ccc12
355 to 357	COc1ccc(-n2c(=O)[nH]c3c(C(N)=O)nc(-c4cccc(O)c4)nc32)c(C)c1
115 to 117	CN1CCN(Cc2ccc3c(c2)Cc2c(-c4ccsc4)n[nH]c2-3)CC1
81 to 82	Cc1oc(-c2ccccc2)nc1COc1cccc(CON)c1

melting point [°C]	SMILES
77 to 78	CN(C)c1ccc(C=O)c(O)c1
229 to 230	Cn1cc(C(=O)NCc2ccc(Cl)cc2)c(=O)c2cc(CO)oc21
114 to 117	CCOC(=O)N1N=C(c2ccc(N)cc2)c2cc(Br)ccc2CC1C (stereo unspecified)
210	CCCC(=O)Nc1ccc2[nH]c(C(=O)O)cc2c1
109 to 110	CCOP(=O)(OCC)C1(P(=O)(OCC)OCC)CC(C(=O)C(C)c2ccc(-c3ccccc3)c(F)c2)=NN1 (stereo unspecified)
235 to 237	O=C1CCC(N2Cc3c(OCc4ccccn4)cccc3C2=O)C(=O)N1 (stereo unspecified)
88 to 89	O=[N+]([O-])c1cc2c(cc1O)CCCC2
208 to 210	C=C(C)C(=O)OCCNC(=O)Nc1ccc(C(=O)O)c(O)c1
107 to 109	Cc1c(O)cccc1C(=O)N[C@@H](Cc1ccccc1)[C@H](O)C(=O)N1CSC(C)(C)[C@H]1C(=O)NCc1ccc(N)cc1
193 to 196	Nc1cc(-c2c[nH]cn2)ccn1
233	CN1CC=C(C2=C(C#N)C(c3cccc(C#N)c3Br)c3c[nH]nc3N2)CC1 (stereo unspecified)
156 to 158	Cc1ccccc1Nc1c(N)cnc2ccccc12
224 to 226	Cc1c2ccccc2c(-c2cc(Br)c(O)c(Br)c2)c2c1sc1ccccc12
162 to 163	CCOC(=O)C1=C(C)NC(CO)=C(C(=O)OCC)C1c1cccc(O)c1 (stereo unspecified)
230 to 232	CC(=O)Nc1ccccc1CCc1ccccn1
147 to 148	Cc1oc(C=Cc2cccc(Cl)c2)nc1CO
205 to 206	Cc1ccc2[nH]c(=O)c(=O)[nH]c2c1CN(C)Cc1ccccc1
123 to 124	O=C(Nc1ccc2c(c1)C(O)CC2)C(F)(F)F (stereo unspecified)
151 to 158	Cn1cc2c(nc(NC(=O)Nc3ccc(CC(=O)NCCCOCCOCCOCCCNC(=O)OC(C)(C)C)cc3)n3nc(-c4ccco4)nc23)n1
172	COc1ccc(CN(C)CCc2ccc(NC(=O)c3cccc4c(=O)c5ccccc5[nH]c34)cc2)cc1OC
